Experimental data as given in patent US5385842A, “Anthraquinones as inhibitors of sulfide production from sulfate-reducing bacteria” (E. I. Du Pont de Nemours and Company, priority 1993, dated 1995).
Where a name gives a salt, the structure may show the parent alone.

System: Desulfovibrio desulfuricans G100A
Experiment: microbe, parasite or virus in culture
Format: cell-based
Details: for inhibition at 30 ppm / inhibition at 10 ppm: Desulfovibrio desulfuricans, G100A, read-out: % Inhib. (inhibition of sulfide production)

| SMILES | inhibition at 30 ppm [%] | inhibition at 10 ppm [%] | other results |
| --- | --- | --- | --- |
| COc1cccc2c1C(=O)c1c(O)c3c(c(O)c1C2=O)C[C@@](O)(C(C)=O)C[C@@H]3O[C@H]1C[C@H](N)[C@H](O)[C@H](C)O1 [Daunomycin hydrochloride, (8S-cis)-8-Acetyl-10[(3-amino-2,3,6-trideoxy-alpha-L-lyxo-hexopyranosyl)oxy]-7,8,9,10-tetrahydro-6,8,11-trihydroxy-1-methoxy-5,12-naphthacenedione hydrochloride, reference compound] | 62.9 |  |  |
| O=C1c2ccccc2C(=O)c2c(Nc3cccc4c3C(=O)c3ccccc3C4=O)cccc21 [Dianthrimide, 1,1'-Iminobis-9,10-anthracenedione] | 2.6 |  |  |
| Nc1ccc(N)c2c1C(=O)c1c(N)ccc(N)c1C2=O [Disperse blue 1, 1,4,5,8-Tetraaminoanthraquinone] | 3.9 |  |  |
| CNc1ccc(NCCO)c2c1C(=O)c1ccccc1C2=O [Disperse blue 3, 1-(2-Hydroxyethyl)amino-4-methylaminoanthraquinone] | 6.4 |  |  |
| Cc1ccc2c(c1N)C(=O)c1ccccc1C2=O [Disperse orange 11, 1-Amino-2-methylanthraquinone] | 5.2 |  |  |
| COc1cc(N)c2c(c1N)C(=O)c1ccccc1C2=O [Disperse red 11, 1,4-Diamino-2-methoxyanthraquinone] | 0 |  |  |
| Cc1cc(O)c2c(c1)C(=O)c1cc(O)cc(O)c1C2=O [Emodin, 6-Methyl-1,3,8-trihydroxyanthraquinone] | 2.6 |  |  |
| Cc1cc(O)c2c(c1)C(=O)c1cc(O[C@@H]3OC[C@](O)(CO)[C@H]3O)cc(O)c1C2=O [Frangulin B, 3-(D-apio-beta-D-Furanosyloxy)-1,8-dihydroxy-6-methyl-9,10-anthracenedione] | 57.1 |  |  |
| Cc1cc(O)c2c(c1)C(=O)c1c(O)ccc(O)c1C2=O [Helminthosporin, 1,5,8-Trihydroxy-3-methyl-9,10-anthracenedione] |  | 31.3 |  |
| O=C1c2ccc3nc(-c4ccccc4)sc3c2C(=O)c2ccc3nc(-c4ccccc4)sc3c21 [Indanthrene yellow GCN, 2,8-Diphenyl-anthra[2,1-d:6,5-d']bisthiazole-6,12-dione] |  | 15.6 |  |
| Cc1cc(O)c2c(c1O)C(=O)c1cccc(O)c1C2=O [Islandicin, 1,4,5-Trihydroxy-2-methyl-9,10-anthracenedione] |  | 50 |  |
| COc1cc(NS(=O)(=O)c2ccc(C)cc2)c2c(c1N)C(=O)c1ccccc1C2=O [N-(4-Amino-9,10-dihydro-3-methoxy-9,10-dioxo-1-anthracenyl)-4-methylbenzenesulfonamide] | 4.3 |  |  |
| O=C1c2ccccc2C(=O)c2cc(S(=O)(=O)NCc3ccccc3)ccc21 [N-Benzyl-9,10-dihydro-9,10-dioxo-2-anthracenesulfonamide] | 3.9 |  |  |
| CC(C)NC(=N)NC(=N)Nc1cccc2c1C(=O)c1ccccc1C2=O [N-[1-(9,10-dihydro-9,10-dioxo)anthracenyl]-N'-(1-methylethyl)imidodicarbonimidic diamide hydrochloride] |  |  | inhibition of sulfide production (in words): inhibited sulfide formation; % inhibition of sulfide formation (Table III, Example 3): 83% |
| Nc1c(O)c(S(=O)(=O)O)c(O)c2c1C(=O)c1ccccc1C2=O [Nuclear fast red, 4-Amino-9,10-dihydro-1,3-dihydroxy-9,10-dioxo-2-anthracenesulfonic acid, monosodium salt] |  | 20.4 |  |
| CCCCCNc1ccc(NCCCCC)c2c1C(=O)c1ccccc1C2=O [Oil blue N, 1,4-Bis(pentylamino)-9,10-anthracenedione] | 3.6 |  |  |
| COc1cc(O)c2c(c1)C(=O)c1cc(C)cc(O)c1C2=O [Physcion, 1,8-Dihydroxy-3-methoxy-6-methyl-9,10-anthracenedione] |  | 34.4 |  |
| O=C1c2ccccc2C(=O)c2c(O)c(O)cc(O)c21 [Purpurin, 1,2,4-Trihydroxyanthraquinone] | 55.7 |  |  |
| O=C1c2ccc(O)c(O)c2C(=O)c2c(O)ccc(O)c21 [Quinalizarin, 1,2,5,8-Tetrahydroxyanthraquinone] |  | 80 |  |
| Nc1c(S(=O)(=O)O)cc(Nc2ccc(S(=O)(=O)O)c(Nc3nc(Cl)nc(Nc4cccc(S(=O)(=O)O)c4)n3)c2)c2c1C(=O)c1ccccc1C2=O [Reactive blue 5, 1-Amino-4[[3-[[4-chloro-6-[(3-sulfophenyl)amino]-1,3,5-triazin-2-yl]amino]-4-sulfophenyl]amino]-9,10-dihydro-9,10-dioxo-2-anthracenesulfonic acid] |  | 0 |  |
| Nc1c(S(=O)(=O)O)cc(Nc2cccc(S(=O)(=O)CCOS(=O)(=O)O)c2)c2c1C(=O)c1ccccc1C2=O [Remazol Brilliant blue R, 1-Amino-9,10-dihydro-9,10-dioxo-4-[[3[[2-(sulfoxy)-ethyl]sulfonyl]phenyl]amino]-2-anthracenesulfonic acid, disodium salt] |  | 12.4 |  |
| O=C1c2ccccc2C(=O)c2c1ccc(O[C@@H]1O[C@H](CO[C@@H]3OC[C@@H](O)[C@H](O)[C@H]3O)[C@@H](O)[C@H](O)[C@H]1O)c2O [Ruberythric acid, 1-Hydroxy-2-[(6-O-β-D-xylopyranosyl-β-D-glucopyranosyl)oxy]-9,10-anthracenedione] |  | 29.7 |  |
| Cc1ccc(Nc2ccc(Nc3ccc(C)cc3)c3c2C(=O)c2ccccc2C3=O)cc1 [Solvent green 3, 1,4-Bis[(4-methylphenyl)amino]9,10-anthracenedione] | 4.3 |  |  |
| Cc1ccc(Nc2ccc(O)c3c2C(=O)c2ccccc2C3=O)c(S(=O)(=O)O)c1 [Solway purple R, 2-[(9,10-Dihydro-4-hydroxy-9,10-dioxo-1-anthracenyl)-amino]-5-methyl-benzenesulfonic acid, Na salt] | 9.1 |  |  |
| CCNc1ccc(NCC)c2c1C(=O)c1ccccc1C2=O [Sudan blue, 1,4-Bis(ethylamino)-9,10-anthracenedione] | 1.3 |  |  |
| Cc1ccc(Nc2ccc(Nc3ccc(C)cc3)c3c2C(=O)c2cccc(O)c2C3=O)cc1 [Sudan green, 5-hydroxy-1,4-bis[(4-methylphenyl)amino]-9,10-anthracenedione] | 0 |  |  |
| CN(C)CCOc1ccc2c(c1)C(=O)c1ccc(OCCN(C)C)cc1C2=O [Tilorone analog R11,043DA, 2,6-Bis[2-(dimethylamino)ethoxy]-9,10-anthracenedione] |  | 98.7 |  |
| Cc1ccc(Nc2ccc(Nc3ccc(C)cc3S(=O)(=O)O)c3c2C(=O)c2c(O)ccc(O)c2C3=O)c(S(=O)(=O)O)c1 [alizarine viridine, 2,2'-[(9,10-Dihydro-5,8-dihydroxy-9,10-dioxo-1,4-anthracenediyl)diimino]bis[5-methyl]benzenesulfonic acid] | 2.6 |  |  |
| Nc1c(S(=O)(=O)O)cc(Nc2ccc(S(=O)(=O)O)c(Nc3nc(Cl)nc(Cl)n3)c2)c2c1C(=O)c1ccccc1C2=O [reactive blue 4] |  | 7.3 |  |
